For 16 compounds, Activity and IC50 results are on record in ChEMBL document CHEMBL3856224, “Novel series of tacrine-tianeptine hybrids: Synthesis, cholinesterase inhibitory activity, S100B secretion and a molecular modeling approach” (Eur J Med Chem, 2016).

Active and inactive are the calls of the source. The rule behind the calls is not given here.

For series [1], the species on record is Rattus norvegicus. In words: Toxicity in Wistar rat hippocampus assessed as LDH release at 0.1 uM relative to control. It counts as organism-based. As to conditions: in vivo. For orientation: Release of lactate dehydrogenase indicates damage to the cell membrane.
Series [2] is filed under the species Rattus norvegicus. In words: Toxicity in Wistar rat hippocampus assessed as LDH release at 0.3 uM relative to control. It counts as organism-based. As to conditions: in vivo.
The next series addresses Cholinesterase (Homo sapiens, UniProt P06276).
The next series deals with T1, Acetylcholinesterase (Rattus norvegicus, UniProt P37136).
T1 sequence (P37136 whole entry): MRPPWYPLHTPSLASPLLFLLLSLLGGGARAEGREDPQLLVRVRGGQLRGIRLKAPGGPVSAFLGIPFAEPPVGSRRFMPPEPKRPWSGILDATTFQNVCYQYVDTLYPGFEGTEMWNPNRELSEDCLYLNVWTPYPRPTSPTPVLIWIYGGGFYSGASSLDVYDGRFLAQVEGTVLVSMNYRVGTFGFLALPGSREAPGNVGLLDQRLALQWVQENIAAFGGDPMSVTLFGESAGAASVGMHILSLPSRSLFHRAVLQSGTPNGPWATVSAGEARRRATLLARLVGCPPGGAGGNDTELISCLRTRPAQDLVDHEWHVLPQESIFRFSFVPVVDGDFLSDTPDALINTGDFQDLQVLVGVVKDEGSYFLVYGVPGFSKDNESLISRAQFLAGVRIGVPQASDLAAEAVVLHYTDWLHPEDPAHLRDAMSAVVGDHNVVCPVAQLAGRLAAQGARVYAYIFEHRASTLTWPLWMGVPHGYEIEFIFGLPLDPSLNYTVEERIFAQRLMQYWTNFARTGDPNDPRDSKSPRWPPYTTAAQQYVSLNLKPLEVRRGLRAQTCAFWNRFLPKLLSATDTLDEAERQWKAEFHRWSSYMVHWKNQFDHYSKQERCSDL
Set-up: species or system Wistar.

The next series deals with Hippocampus. In words: Reduction of S100B secretion in Wistar rat hippocampus at 0.03 to 0.3 uM after 1 hr by ELISA. The class given is functional. (In general: ELISA stands for enzyme-linked immunosorbent assay.)
The species entered for series [3] is Rattus norvegicus. In words: Toxicity in Wistar rat hippocampus assessed as LDH release at 0.03 uM relative to control. As to conditions: in vivo. The class given is organism-based.

Cholinesterase, sequence (P06276 whole entry): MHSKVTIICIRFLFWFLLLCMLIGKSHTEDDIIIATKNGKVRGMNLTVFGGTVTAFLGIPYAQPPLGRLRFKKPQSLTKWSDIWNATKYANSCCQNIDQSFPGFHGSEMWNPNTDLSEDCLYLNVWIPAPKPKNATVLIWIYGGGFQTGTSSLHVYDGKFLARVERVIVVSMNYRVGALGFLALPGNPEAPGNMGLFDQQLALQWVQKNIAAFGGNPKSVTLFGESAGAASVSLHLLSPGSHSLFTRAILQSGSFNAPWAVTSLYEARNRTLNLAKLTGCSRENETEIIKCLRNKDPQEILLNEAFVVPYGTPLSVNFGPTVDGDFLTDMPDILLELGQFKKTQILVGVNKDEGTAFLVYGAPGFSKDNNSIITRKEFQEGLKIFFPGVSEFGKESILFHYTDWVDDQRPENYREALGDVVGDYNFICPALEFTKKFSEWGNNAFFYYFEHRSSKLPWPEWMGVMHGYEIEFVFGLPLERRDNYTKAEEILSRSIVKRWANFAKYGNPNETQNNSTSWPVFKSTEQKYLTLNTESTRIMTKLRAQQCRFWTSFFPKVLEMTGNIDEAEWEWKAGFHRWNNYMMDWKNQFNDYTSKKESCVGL
Description for Acetylcholinesterase: Inhibition of Wistar rat brain AChE using acetylthiochloline iodide as substrate after 30 mins by Ellman's method

Take `CN1c2ccccc2C(NCCCCCCC(=O)O)c2ccc(Cl)cc2S1(=O)=O` (stereo unspecified) [TIANEPTINE]: the Activity is 109.7% in the series filed under Rattus norvegicus [1] and 110.8% in the series listed under Rattus norvegicus [2].
`c1ccc2c(NCCCCCCCNc3c4c(nc5ccccc35)CCCC4)c3c(nc2c1)CCCC3` came in with an IC50 on Cholinesterase of 38.3 nM.
Take `CN1c2ccccc2C(NCCCCCCC(=O)NCCCCCCCNc2c3c(nc4ccccc24)CCCC3)c2ccc(Cl)cc2S1(=O)=O` (stereo unspecified): the figures for the IC50 against Acetylcholinesterase and on Cholinesterase were 65 nM and 6.4 nM, respectively.
Take `CN1c2ccccc2C(NCCCCCCC(=O)NCCCCCCNc2c3c(nc4ccccc24)CCCC3)c2ccc(Cl)cc2S1(=O)=O` (stereo unspecified): the IC50 against Acetylcholinesterase is 116 nM; against Cholinesterase, 3.79 nM.
Take `CN1c2ccccc2C(NCCCCCCC(=O)NCCCCNc2c3c(nc4cc(Cl)ccc24)CCCC3)c2ccc(Cl)cc2S1(=O)=O` (stereo unspecified): the IC50 is 36.5 nM against Acetylcholinesterase and 48.1 nM at Cholinesterase.
The like results for `CN1c2ccccc2C(NCCCCCCC(=O)NCCCCCCCCNc2c3c(nc4ccccc24)CCCC3)c2ccc(Cl)cc2S1(=O)=O` (stereo unspecified) were, in that order, 87.5 nM and 4.12 nM.
In the case of `CN1c2ccccc2C(NCCCCCCC(=O)NCCCCCNc2c3c(nc4ccccc24)CCCC3)c2ccc(Cl)cc2S1(=O)=O` (stereo unspecified), the concentration for half-maximal inhibition (IC50) on Acetylcholinesterase came to 108 nM; on Cholinesterase it was 6.97 nM. Also, the result in the series on Hippocampus was Active. In addition, the Activity in the series listed under Rattus norvegicus [3] was determined as 67.4%.
Take `CN1c2ccccc2C(NCCCCCCC(=O)NCCNc2c3c(nc4cc(Cl)ccc24)CCCC3)c2ccc(Cl)cc2S1(=O)=O` (stereo unspecified): the results for the IC50 on Acetylcholinesterase and at Cholinesterase were 8.01 nM and 47.3 nM, respectively.
Consider `CN1c2ccccc2C(NCCCCCCC(=O)NCCCCCCCNc2c3c(nc4cc(Cl)ccc24)CCCC3)c2ccc(Cl)cc2S1(=O)=O` (stereo unspecified), for which the concentration for half-maximal inhibition (IC50) worked out at 132 nM on Acetylcholinesterase and 53.8 nM on Cholinesterase.
Regarding `CN1c2ccccc2C(NCCCCCCC(=O)NCCCNc2c3c(nc4cc(Cl)ccc24)CCCC3)c2ccc(Cl)cc2S1(=O)=O` (stereo unspecified), the IC50 on Acetylcholinesterase came out at 6.79 nM; at Cholinesterase it was 52.4 nM.
Take `CN1c2ccccc2C(NCCCCCCC(=O)NCCCCCNc2c3c(nc4cc(Cl)ccc24)CCCC3)c2ccc(Cl)cc2S1(=O)=O` (stereo unspecified): the IC50 against Acetylcholinesterase was found to be 28.3 nM; against Cholinesterase, 30.4 nM.
For the compound `CN1c2ccccc2C(NCCCCCCC(=O)NCCNc2c3c(nc4ccccc24)CCCC3)c2ccc(Cl)cc2S1(=O)=O` (stereo unspecified), the 50% inhibitory concentration (IC50) was 82.2 nM against Acetylcholinesterase and 22.6 nM at Cholinesterase.
The like results for `CN1c2ccccc2C(NCCCCCCC(=O)NCCCCCCNc2c3c(nc4cc(Cl)ccc24)CCCC3)c2ccc(Cl)cc2S1(=O)=O` (stereo unspecified) were, in that order, 39.1 nM and 32.1 nM.
On to `CN1c2ccccc2C(NCCCCCCC(=O)NCCCCNc2c3c(nc4ccccc24)CCCC3)c2ccc(Cl)cc2S1(=O)=O` (stereo unspecified), for which the Activity in the series filed under Rattus norvegicus [1] was found to be 74.9%; in the series filed under Rattus norvegicus [3] it was 72.7%. In addition, the concentration for half-maximal inhibition (IC50) against Acetylcholinesterase is 156 nM; at Cholinesterase, 3.59 nM. Also, the result with Hippocampus was Active.
Regarding `CN1c2ccccc2C(NCCCCCCC(=O)NCCCNc2c3c(nc4ccccc24)CCCC3)c2ccc(Cl)cc2S1(=O)=O` (stereo unspecified), the IC50 was 52.2 nM against Acetylcholinesterase and 11.6 nM against Cholinesterase.
On to `CN1c2ccccc2C(NCCCCCCC(=O)NCCCCCCCCNc2c3c(nc4cc(Cl)ccc24)CCCC3)c2ccc(Cl)cc2S1(=O)=O` (stereo unspecified), for which the figures for the IC50 against Acetylcholinesterase and against Cholinesterase were 452 nM and 456 nM, respectively.

As usually defined, the IC50 is the midpoint of a concentration-inhibition curve.
